In patent publication US12070036B2, “Methods and compositions comprising nematode signalling compounds” (PHERONYM, INC., priority 2018, dated 2024):

Test system: RKN J2
Experiment: RKN J2 dispersal away from the pheromone application site
Assay type: in vivo, Meloidogyne spp.
Conditions: for activity as a repellent (in words): single ascarosides vs presented together
Protocol: FIG. 2. RKN J2 responds to pheromones purified from S. carpocapsae growth medium within 2 hours. The 57% MeOH extraction only contains one pheromone, ascr #10, which is also secreted by RKN. […] The 73% MeOH extraction includes both ascr #10 and ascr #18. Both of these pheromones are released by RKN J2. We can already see a synergy and recognition and 15% more J2 left the pheromone application spot due to recognition of the pheromone signals. […] The figure is representative of the 2 independent experiments repeated in time and each experiment has 6 independent replications.
FIG. 3. RKN J2 response to pheromones extracted from S. feltiae growth medium within 2 h of exposure. Control has only water. Pheromones resuspended in water. The experiment has 5 independent replications.
We extracted the pheromones with 58% and 73% Methyl alcohol using S. carpocapsae insect host cadavers, the growth medium for S. carpocapsae. Then the extracts were dried and re-suspended in MILLIQ water. Centrifuged at 6000 r.c.f. to remove insoluble material and then dried using a speed vac. […] This particular fraction only included one ascaroside, ascr #10, common between RKN and S. carpocapsae. […] The 73% MeOH extract contained two common pheromones, ascr #10 and ascr #18, between RKN and S. carpocapsae. The two pheromones together caused 15% more RKN J2 to move away from the application site compared to water control.
We tested this with one more Steinernema species growth medium. We extracted the pheromones using 70% MeOH from the S. feltiae growth medium (insect host cadavers). This particular extraction contains the two common ascarosides, ascr #10 and ascr #18, between RKN and Steinernema species.
Since ascr #10 and […] are the only common ascarosides between Steinernema and RKN species, we looked at other species that release ascarosides that RKN J2 release.

SMILES: C[C@H](CCCCCCC(=O)O)O[C@@H]1O[C@@H](C)[C@H](O)C[C@H]1O [ascr #10]
- RKN J2 response to pheromones (in words) (RKN J2, within 2 hours, vs water control): did not elicit any response
- activity as a repellent (in words): not active

SMILES: C[C@H](CCCCCCCCC(=O)O)O[C@@H]1O[C@@H](C)[C@H](O)C[C@H]1O [ascr #18]
- activity as a repellent (in words): not active
